Patent US20240197728A1, “METHODS AND PHARMACEUTICAL COMPOSITIONS FOR TREATING REFRACTORY EPILEPSY” (INSERM (INSTITUT NATIONAL DE LA SANTÉ ET DE LA RECHERCHE …, priority 2021, published 2024)

Target: T1, KCC2 (Rattus norvegicus, UniProt Q63633)
T1 construct: endogenous in cells; host or cells: primary rat hippocampal neurons (E18-19 Sprague-Dawley)
T1 sequence (Q63633 1-1116 isoform Q63633-2): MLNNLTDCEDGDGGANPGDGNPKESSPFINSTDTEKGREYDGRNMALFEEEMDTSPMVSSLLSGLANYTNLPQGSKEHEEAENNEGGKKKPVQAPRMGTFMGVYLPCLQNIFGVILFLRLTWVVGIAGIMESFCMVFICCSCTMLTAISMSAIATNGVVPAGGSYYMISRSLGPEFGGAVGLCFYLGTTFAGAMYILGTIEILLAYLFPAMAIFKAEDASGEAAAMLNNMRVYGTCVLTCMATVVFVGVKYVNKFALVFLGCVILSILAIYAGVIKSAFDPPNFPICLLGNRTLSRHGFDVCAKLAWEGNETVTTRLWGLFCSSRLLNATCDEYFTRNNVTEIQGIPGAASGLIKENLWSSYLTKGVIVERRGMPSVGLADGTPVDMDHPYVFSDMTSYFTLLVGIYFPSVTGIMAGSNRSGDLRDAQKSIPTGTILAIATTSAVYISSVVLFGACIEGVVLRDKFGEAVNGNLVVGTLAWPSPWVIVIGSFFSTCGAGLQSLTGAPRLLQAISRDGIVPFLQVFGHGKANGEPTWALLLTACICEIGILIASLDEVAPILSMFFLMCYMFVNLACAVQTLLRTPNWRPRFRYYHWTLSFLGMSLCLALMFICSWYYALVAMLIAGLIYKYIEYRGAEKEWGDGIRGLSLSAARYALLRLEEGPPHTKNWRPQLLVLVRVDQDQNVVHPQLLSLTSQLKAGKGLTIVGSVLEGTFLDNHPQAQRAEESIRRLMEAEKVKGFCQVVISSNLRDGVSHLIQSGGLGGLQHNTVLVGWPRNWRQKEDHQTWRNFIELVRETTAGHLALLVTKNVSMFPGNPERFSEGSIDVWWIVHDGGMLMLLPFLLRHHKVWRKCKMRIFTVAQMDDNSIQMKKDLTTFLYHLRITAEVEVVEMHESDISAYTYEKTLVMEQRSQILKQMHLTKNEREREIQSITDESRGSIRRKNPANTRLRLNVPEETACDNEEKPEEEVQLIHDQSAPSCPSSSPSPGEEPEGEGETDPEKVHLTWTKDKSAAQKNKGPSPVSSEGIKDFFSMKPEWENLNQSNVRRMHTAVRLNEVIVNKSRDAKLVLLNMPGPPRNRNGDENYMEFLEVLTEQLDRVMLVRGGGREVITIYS
Experiment: KCC2 cluster immunocytochemistry in hippocampal neurons
Format: cell-based
Conditions: for change of KCC2 cluster area / change of KCC2 cluster density / change of KCC2 cluster intensity: vs DMSO
Method: […] Drugs were added directly to the culture medium. For electrophysiology experiments, neurons were also recorded in presence of these drugs in the bath. For biochemistry experiments on rat hippocampo-cortical slices, slices were incubated with either DMSO (vehicle), CLP257, PCPZ, WNK463 or sodium orthovanadate for 2 hours in interface chambers set at 37° C. For human tissue experiments, slices were pre-incubated with either DMSO, CLP257 or PCPZ for 2 hours in interface chambers set at 37° C. and then also recorded in presence of these compounds.
Neurons were fixed for 15 min at room temperature (RT), with paraformaldehyde (PFA, 4% w/v in PBS). Cells were then washed in PBS, permeabilized with […] for 4 min at RT and then exposed to a blocking solution containing goat serum (20% v/v; Invitrogen) and 0.1% Triton X100 diluted in PBS. Neurons were incubated for 1 hour at RT with rabbit KCC2 antibody (1: 500; Sigma) and mouse MAP2 antibody (1:500; Chemicon). Neurons were then incubated for 45 min at RT with AlexaFluor 488-conjugated goat anti-mouse antibody (1:400; Jackson Labs) and with Cy3-conjugated goat anti-rabbit antibody (1:400; Jackson Labs). Neurons were then labeled with DAPI (1:2000, 5 min), washed in PBS and mounted on slides with Mowiol 844 (48 mg/ml, Sigma).
Images were acquired using a 63×objective (NA 1.40) mounted on an upright epifluorescence microscope (DM6000, Leica) equipped with a 12-bit cooled CCD camera (Micromax, Roper Scientific) operated with MetaMorph software (Roper Scientific). For KCC2 clusters detection, exposure time was adjusted to obtain best fluorescence to noise ratio and to avoid pixel saturation. This exposure time was maintained unchanged among cells and conditions. For experiments on non-transfected cells and for each neuron, dendritic sections were chosen using MAP2 labeling and then an image with tetramethylrhodamine (TRITC) filter was acquired to visualize KCC2 labeling.
KCC2 clusters analysis was performed using MetaMorph software (Roper Scientific), as previously described. Images were first flatten background filtered (kernel size, 3×3×2) to enhance cluster outline and a user-defined intensity threshold was applied to select clusters and avoid their coalescence. Clusters were delineated in the area of interest (AOI) and the corresponding regions were transferred onto raw images to quantify cluster density (mean KCC2 cluster number per 10 μm^2) and integrated cluster intensity (integrated fluorescence pixel intensity within clusters). For each culture, the analysis was done on 10 cells per condition and approx. 100 clusters per cell.

| Compound | increased KCC2 clustering observed (100 μM CLP257, 30 minutes) | change of KCC2 cluster area (100 μM CLP257, 2 h) | change of KCC2 cluster density (100 μM CLP257, 2 h) | change of KCC2 cluster intensity (100 μM CLP257, 2 h) | increased KCC2 clustering observed (10 μM PCPZ, 30 minutes) | change of KCC2 cluster area (10 μM PCPZ, 2 h) | change of KCC2 cluster density (10 μM PCPZ, 2 h) | change of KCC2 cluster intensity (10 μM PCPZ, 2 h) |
| --- | --- | --- | --- | --- | --- | --- | --- | --- |
| O=C1N=C(N2CCCCN2)S/C1=C\c1ccc(F)cc1O [CLP257, (5Z)-5-[(4-Fluoro-2-hydroxyphenyl)methylene]-2-(tetrahydro-1-(2H)-pyridazinyl)-4(5H)-thiazolone] | not after 30 minutes only | +36.30±20.40% | −3.48±4.20% | +33.94±13.64% |  |  |  |  |
| CN1CCN(CCCN2c3ccccc3Sc3ccc(Cl)cc32)CC1 [PCPZ, prochlorperazine] |  |  |  |  | not after 30 minutes only | +45.25±18.07% | −6.58±8.37% | +109±61.44% |
